Where two headings read alike, the source gives them in different places. Each block holds one compound with its values, some of them ahead of it.
Tested on: mammalian GPAT
Test: GPAT inhibition in vitro
Type: biochemical
Conditions: for IC50: read-out: IC50 (µM) ± SD; for fold increase in inhibitory activity compared to 1c: relative to 1c; for fold decrease in inhibition compared to corresponding linker-free analog: 15a vs 13d, 18b vs 12h

Compound: CCCCCCCCS(=O)(=O)Nc1ccccc1C(=O)O [Compound 1c, 2-(octanesulfonamido)benzoic acid]
- inhibitory activity against GPAT (in words) (in vitro): comparable to 1b

- IC50 (GPAT inhibition by 4-substituted derivatives (Table 1)): 63.1 ± 5.5 µM
Compound: CCCCCCCCS(=O)(=O)Nc1cc(-c2ccccc2O)ccc1C(=O)O [Compound 12k]

- IC50 (GPAT inhibition by 5-substituted derivatives (Table 2)): 14.4 ± 1.3 µM
Compound: CCCCCCCCS(=O)(=O)Nc1ccc(-c2ccccc2Cl)cc1C(=O)O [Compound 13a]

Compound: CCCCCCCCS(=O)(=O)Nc1ccc(-c2cccc(Cl)c2)cc1C(=O)O [Compound 13b]
- fold increase in inhibitory activity compared to 1c: 2.9 fold

Compound: CCCCCCCCS(=O)(=O)Nc1ccc(-c2ccc(CCCC)cc2)cc1C(=O)O [Compound 13d]
- fold increase in inhibitory activity compared to 1c: 2.9 fold

Compound: CCCCCCCCS(=O)(=O)Nc1ccc(-c2ccccc2-c2ccccc2)cc1C(=O)O [Compound 13e]
- fold increase in inhibitory activity compared to 1c: 2.5 fold

Compound: CCCCCCCCS(=O)(=O)Nc1cc(C(=O)c2ccc(-c3ccccc3)cc2)ccc1C(=O)O [Compound 14b, 4-([1,1'-biphenyl]-4-carbonyl)-2-(octanesulfonamido)benzoic acid]
- fold increase in inhibitory activity compared to 1c: 3 fold
- fold more potent inhibition compared to linker-free analog 13f (relative to 13f): 2 fold

Compound: CCCCCCCCS(=O)(=O)Nc1ccc(C(=O)c2ccc(CCCC)cc2)cc1C(=O)O [Compound 15a]
- fold decrease in inhibition compared to corresponding linker-free analog: 3.5 fold

Compound: CCCCCCCCS(=O)(=O)Nc1cc(CCc2ccc(OC)cc2)ccc1C(=O)O [Compound 18b]
- fold decrease in inhibition compared to corresponding linker-free analog: 3.2 fold
